{
  "source": "patent US12404345B2",
  "about": "“Humanized antibodies against iRHOM2” (SCIRHOM GMBH, priority 2021, dated 2025)",
  "test_system": "LPS-induced release of endogenous TNFα from human PBMCs from healthy donors",
  "assay": "ELISA-based TNFα release assay, LPS-induced, PBMCs from healthy donors",
  "type": "cell-based",
  "conditions": "PBMC, Batimastat 10 μM, LPS 0.01 ng/ml, 2 hours",
  "protocol": "In the following study, ELISA-based TNF& release assays were performed to analyze the inhibitory effects of the antibodies of the invention on LPS-induced release of endogenous TNF& from primary human material obtained from healthy donors using peripheral blood mononuclear cells (PBMCs).\nIn brief, on day 1, Nunc black MaxiSorp® 96-well plates (Thermo Fisher Scientific, USA) were coated overnight with 100 μl per well of mouse anti-human TNFα capture antibody (provided as part of the DuoSet ELISA kit) at 4 μg/ml TBS at 4° C. On day 2, the capture antibody solution was removed and MaxiSorp® plates were blocked with 300 μl per well of TBS, 1% BSA at room temperature for 3 hours. […] Using an infinite M1000 (Tecan Group, Switzerland) microplate reader, the fluorescence of each well was collected at an excitation wavelength of 435 nm and an emission wavelength of 555 nm.",
  "data": [
    {"smiles": "CNC(=O)[C@H](Cc1ccccc1)NC(=O)[C@H](CC(C)C)[C@H](CSc1cccs1)C(=O)NO", "note": "[Batimastat]", "values": [
      {"measurement": "inhibition at 10 µM", "value": 98.9, "unit": "%"}
    ]}
  ]
}
